Assay results taken from publication PMC11090880 (Current Research in Microbial Sciences, 2024).

Biological target: OROV Endo-Nter (N-terminal endonuclease domain of the OROV RNA polymerase, L protein) (Oropouche virus, UniProt A0A0B5CUJ1)
Assay: FRET cleavage assay of dual-labelled DNA
Format: biochemical

COc1cc(O)c2c(c1)oc(=O)c1c3cc(O)c(O)cc3oc21 [WDL, 7‑methoxy 5,11,12-trihydroxy-coumestan]
IC50: 310 ± 8 nM
